The source of these data is article PMC9309159, “Identification of heptapeptides targeting a lethal bacterial strain in septic mice through an integrative approach” (Signal Transduction and Targeted Therapy, 2022).

The subject of experiment [1] is E. coli MSI001. In words: Survival of mice subjected to septic modeling with MSI001. Format: in vivo, C57BL/6 mice. As to conditions: MSI001 6 × 10^6 CFU/g i.p.; peptide 0.2 nmol/g i.v. 1 h later; observed up to 168 h; Kaplan-Meier; n = 20. The source says:
(§1) Wild-type C57 mice were intraperitoneally injected with MSI001 bacteria (6 × 10^6 CFU/g body weight) to reproduce a sepsis model. […] Normal saline (NS) was used as control. […] One hour after CLP modeling, the mice were intravenously injected with LL37 or VTK-LL37 peptide at a dosage of 0.2 nmol/g body weight. Equal volume of normal saline (NS) was used as control. […] The mice were intraperitoneally injected with MSI001 bacteria. One hour later, the mice were subjected to tail vein injection (TVI) with VTK-LL37 (VTK-LL37 group), LL37 (LL37 group) or an equivalent volume of NS (sepsis group). Wild-type mice without modeling were used as controls (control group). The blood bacteria were quantitated as colony forming units (CFU) 12 h after injection of bacteria. n = 8. *P < 0.05, compared to control; ^#P < 0.05, compared to sepsis group^; ΔP < 0.05, compared to LL37 group. Results are expressed as the median with range. d Suppression of VTK-LL37 on the production of HMGB1 in the blood of septic mice. […] Twelve hours after bacterial injection, HMGB1 in the serum was quantitated by ELISA. n = 8. *P < 0.05, compared to control; ^#P < 0.05, compared to sepsis group; ^ΔP < 0.05, compared to LL37 group^. Results are expressed as the mean ± SD. e, f Protective effect of VTK-LL37 against organ damage in mice subjected to bacterial injection. […]

Experiment [2] has as its system E. coli MSI001. In words: Biofilm detection (crystal violet, A570). As to conditions: peptide 0-4 μmol/L, 37 °C, 3 days, A570, n = 5. Type of experiment: cell-based, Escherichia coli. The protocol:
Fig. 6 Antimicrobial activity of the C7C-LL37 fusion peptides in vitro. a Primary structures and physical properties of the C7C and LL37 fusion peptides, including LL37, VTK-LL37, LL37-VTK, KYY-LL37 and LL37-KYY, ISS-LL37, INS-LL37. Net charge, PI and GRAVY values were acquired as described above. b Inhibitory effect of C7C-LL37 fusion peptides on bacterial growth. A C7C-LL37 fusion peptide or LL37 alone was added to the cultured bacterial strain MSI001 (1 × 10^3 CFU) at final concentrations of 0.25 μmol/L, 0.5 μmol/L and 1 μmol/L. Sterile DPBS was used as control. After incubation with the C7C-LL37 or LL37 peptides at 37 °C for different times (1-8 h), bacterial colonies were counted. n = 3. *P < 0.05, VTK-LL37 group compared to LL37 group; ^#P < 0.05, LL37-VTK group compared to LL37 group. c, d Inhibitory effect of VTK-LL37 on biofilm formation. […] The biofilm was stained with 1% crystal violet, and the precipitates were dissolved in 95% ethanol, followed by detection of absorbance at 570 nm (A570) (c). […]
When the OD600 of the bacterial suspension reached 1.0, the bacteria were transferred to a 96-well plate, and the VTK-LL37 or LL37 peptide was added at final concentrations of 0.5 μmol/L, 1 μmol/L, 2 μmol/L, or 4 μmol/L, followed by incubation at 37 °C. […] Bacterial biofilms were observed by microscopy and quantitated by spectrometry. […]

Experiment [3] relates to HMGB1. In words: HMGB1 quantitation in serum of septic mice (ELISA). Format: in vivo, C57BL/6 mice. As to conditions: peptide by tail vein 1 h after bacterial injection; serum ELISA at 12 h; n = 8.
From the text: as §1
In general terms: An ELISA detects its analyte on a solid surface through an enzyme-linked reagent.

Experiment [4] relates to E. coli MSI001. In words: In vivo antibacterial assay (blood CFU). Set-up: species or system C57BL/6 mice. The conditions noted are these: MSI001 6 × 10^6 CFU/g i.p.; peptide 0.2 nmol/g tail vein 1 h later; blood CFU at 12 h; n = 8.
From the text: as §1

“CVTKLGSLCVPGVGLLGDFFRKSKEKIGKEFKRIVQRIKDFLRNLVPRTES [VTK-LL37]”: the “survival of septic mice” value in experiment [1] was “significantly increased the survival of septic mice”. Further, the “inhibition of biofilm formation” value in experiment [2] was “inhibited biofilm formation of E. coli MSI001, and VTK-LL37 had a stronger inhibition of biofilm formation at a low dose than LL37 alone”. Besides, in experiment [3], the “production of HMGB1 in serum of septic mice” value is given as “significantly suppressed the production of HMGB1 in the serum of septic mice, which was superior to LL37”. For the same sequence, the “suppression of bacterial growth in blood of septic mice” value in experiment [4] is “stronger capability to suppress the bacterial growth of E. coli MSI001 in the blood of septic mice than LL37”.
